Reference: BindingDB's records for doi:10.1016/j.ejmech.2017.06.016 (University of Science and Technology of China, 2017)

target: T1, Cytoplasmic tyrosine-protein kinase BMX (Homo sapiens, UniProt P51813); assay: ChEBML_1715921
T1 sequence (P51813 whole entry): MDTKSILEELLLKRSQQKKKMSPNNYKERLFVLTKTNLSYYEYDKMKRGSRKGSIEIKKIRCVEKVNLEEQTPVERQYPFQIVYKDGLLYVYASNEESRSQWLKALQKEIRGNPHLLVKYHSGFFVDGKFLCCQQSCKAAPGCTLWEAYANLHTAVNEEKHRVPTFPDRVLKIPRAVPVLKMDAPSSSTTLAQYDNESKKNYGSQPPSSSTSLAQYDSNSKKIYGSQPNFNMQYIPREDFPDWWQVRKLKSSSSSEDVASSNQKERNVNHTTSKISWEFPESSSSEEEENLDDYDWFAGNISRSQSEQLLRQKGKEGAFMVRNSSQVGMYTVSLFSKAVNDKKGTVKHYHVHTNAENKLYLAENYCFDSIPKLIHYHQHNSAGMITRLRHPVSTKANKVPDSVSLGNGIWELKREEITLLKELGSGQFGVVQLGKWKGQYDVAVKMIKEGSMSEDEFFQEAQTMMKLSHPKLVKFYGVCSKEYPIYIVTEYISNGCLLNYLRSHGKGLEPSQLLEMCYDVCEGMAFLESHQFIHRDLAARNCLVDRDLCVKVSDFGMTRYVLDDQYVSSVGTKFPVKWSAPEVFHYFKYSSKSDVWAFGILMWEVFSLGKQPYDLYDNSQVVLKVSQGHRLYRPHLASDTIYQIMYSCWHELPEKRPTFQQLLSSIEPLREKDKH
Description: Inhibition of recombinant full length His-tagged human BMX expressed in baculovirus expression system using poly (4:1 Glu, Tyr) as substrate preincubated for 1 hr followed by substrate addition measured after 1 hr by ADP-glo assay

Question: How did the IC50 turn out when `C=CC(=O)Nc1cccc(-n2c(=O)ccc3cnc4ccc(-c5cn[nH]c5)cc4c32)c1` [QL-XI-13] was run?
Answer: 11 nM

Question: With `C=CC(=O)Nc1cc(-n2c(=O)ccc3cnc4ccc(-c5ccc6c(c5)OCCO6)cc4c32)ccc1C` [QL-XII-115] as the compound, how does the IC50 read?
Answer: 13 nM

Question: For `C=CC(=O)Nc1cc(-n2c(=O)ccc3cnc4ccc(-c5cnc6ccccc6c5)cc4c32)ccc1C` [QL-XII-54], which IC50 is on record?
Answer: 19 nM

Question: How did the IC50 turn out when `C=CC(=O)N1CCc2ccc(-n3c(=O)ccc4cnc5ccc(-c6ccc(N)nc6)cc5c43)cc21` [QL-XII-45] was run?
Answer: 13 nM

Question: Which IC50 does the source give for `C=CC(=O)Nc1cccc(-n2c(=O)ccc3cnc4ccc(-c5ccc(N)nc5)cc4c32)c1` [QL-X-132] here?
Answer: 16 nM

Question: Which IC50 does the source give for `C=CC(=O)Nc1cc(-n2c(=O)ccc3cnc4ccc(-c5ccsc5)cc4c32)ccc1C` [QL-XI-75] here?
Answer: 20 nM
